Earlier results on 2 compounds are cited in patent US20150040249A1, “Non-Human Animal Models of Depression and Methods of Use Thereof” (The Board of Trustees of the Leland Stanford Junior …, priority 2012, published 2015).

For series [1] the following is noted: rats; in vivo electrophysiological recordings.
The test system of the next series is NMDAR. The following applies: humans; acute.

As to `CNCCCN1c2ccccc2CCc2ccccc21` [desipramine], the “reduced bursting activity in depression models” value in series [1] is listed as “restored”. `CNC1(c2ccccc2Cl)CCCCC1=O` (centres unmarked) [ketamine]: the depression-like symptoms result in the series on NMDAR was “can acutely improve depression-like symptoms”.
